Read-outs that look alike come from different tables or passages of the source.
Columns and labels:
Format in all cases: in vivo
[1] = tested on: morningglory (Ipomoea coccinea); experiment: Test B pre-/postemergence plant response; settings: for pest or weed control at 62 g/ha: 62 g ai/ha
Summary of the method: (§1)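 Visual scoring from 0 (no effect) to 100 (complete control) against untreated controls was done 13 to 15 days after greenhouse treatment. Chemicals were formulated in a surfactant-containing non-phytotoxic solvent and applied to soil preemergence or to 1- to 4-leaf (2-18 cm) plants postemergence.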

[2] = tested on: pigweed (Amaranthus retroflexus); experiment: Test B pre-/postemergence plant response; settings: for Pigweed plant response rating: 8 g ai/ha; for pest or weed control at 16 g/ha / pest or weed control at 31 g/ha / pest or weed control at 62 g/ha: Amaranthus retroflexus, read-out: Plant response rating, Pigweed; for pest or weed control at 16 g/ha: 16 g ai/ha; for pest or weed control at 31 g/ha: 31 g ai/ha; for pest or weed control at 62 g/ha: 62 g ai/ha
Summary of the method: as §1

soybean (Glycine max) = experiment: Test B pre-/postemergence plant response; settings: for Soybean plant response rating: 8 g ai/ha; for plant injury at 16 g/ha: 16 g ai/ha; for plant injury at 62 g/ha: 62 g ai/ha
Summary of the method: as §1

[3] = tested on: surinam grass (Brachiaria decumbens); experiment: Test B pre-/postemergence plant response; settings: for Surinam Grass plant response rating: 8 g ai/ha; for pest or weed control at 16 g/ha: 16 g ai/ha; for pest or weed control at 62 g/ha: 62 g ai/ha
Summary of the method: as §1

[4] = tested on: wheat (Triticum aestivum); experiment: Test B pre-/postemergence plant response; settings: for Wheat plant response rating: 8 g ai/ha; for plant injury at 16 g/ha: 16 g ai/ha; for plant injury at 62 g/ha: 62 g ai/ha
Summary of the method: as §1

[5] = tested on: canarygrass (Phalaris minor); experiment: Test B postemergence plant response; settings: for Plant response rating, Canarygrass: Postemergence
Summary of the method: (§2)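 Visual injury ratings on a 0–100 scale, where 100 means complete control, were made 13 to 15 days after postemergence treatment of greenhouse-grown plants at the 1- to 4-leaf stage.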

[6] = tested on: chickweed (Stellaria media); experiment: Test B postemergence plant response; settings: for Plant response rating, Chickweed: Postemergence
Summary of the method: as §2

[7] = tested on: windgrass (Apera spica-venti); experiment: Test B postemergence plant response; settings: for Plant response rating, Windgrass: Postemergence
Summary of the method: as §2

[8] = tested on: winter barley (Hordeum vulgare); experiment: Test B postemergence plant response; settings: for Plant response rating, Barley: Postemergence, scale 0 to 100, 0 no effect, 100 complete control
Summary of the method: as §2

[9] = post-emergence, Postemergence, scale 0 to 100, 0 no effect, 100 complete control
[10] = 8 g ai/ha, postemergence, 0-100 scale
[11] = 31 g ai/ha, scale 0 to 100, 0 no effect, 100 complete control
[12] = 62 g ai/ha, scale 0 to 100, 0 no effect, 100 complete control

For CCc1c(C)c(-c2ccc(Cl)cc2)nn1-c1c(O)cnn(C)c1=O [Compound 26, 4-[3-(4-chlorophenyl)-5-ethyl-4-methyl-1H-pyrazol-1-yl]-5-hydroxy-2-methyl-3(2H)-pyridazinone], the pest or weed control at 62 g/ha ([1]; Ipomoea, post-emergence, Postemergence, scale 0 to 100, 0 no effect, 100 complete control, read-out: Plant response rating, Morningglory) was 0%, the pest or weed control at 16 g/ha ([1]; Ipomoea, pre-emergence, Preemergence, 16 g ai/ha, scale 0 to 100 (0 no effect, 100 complete control), read-out: Plant response rating, Morningglory) was 0% and the pest or weed control at 31 g/ha ([1]; Ipomoea, pre-emergence, Preemergence, 31 g ai/ha, 0 to 100 scale, 0 no effect, 100 complete control, read-out: Plant response rating, Morningglory) was 0%. For the same compound, the pest or weed control at 62 g/ha ([1]; Ipomoea, pre-emergence, Preemergence, scale 0 to 100, read-out: Plant response rating, Morningglory) was 0%, the “Morningglory plant response rating” value ([1]; Preemergence, 8 g ai/ha, scale 0 to 100) was 0 and the “Pigweed plant response rating” value ([2]; postemergence, 0-100 scale) was 0. The pest or weed control at 16 g/ha ([2]; post-emergence, Postemergence, scale 0 to 100) was 0%, the pest or weed control at 31 g/ha [2, 9] was 0% and the pest or weed control at 62 g/ha [2, 9] was 0%. For the same compound, the pest or weed control at 16 g/ha ([2]; pre-emergence, Preemergence, scale 0 to 100 (0 no effect, 100 complete control)) was 0%, the pest or weed control at 31 g/ha ([2]; pre-emergence, Preemergence, 0 to 100 scale, 0 no effect, 100 complete control) was 0% and the pest or weed control at 62 g/ha ([2]; pre-emergence, Preemergence, scale 0 to 100) was 0%. For the same compound, the “Pigweed plant response rating” value ([2]; Preemergence, scale 0 to 100) was 0, the “Soybean plant response rating” value (soybean (Glycine max); postemergence, 0-100 scale) was 0 and the plant injury at 16 g/ha (soybean (Glycine max); Glycine max, post-emergence, Postemergence, scale 0 to 100, read-out: Plant response rating, Soybean) was 0%. For the same compound, the plant injury at 62 g/ha (soybean (Glycine max); Glycine max, post-emergence, Postemergence, scale 0 to 100, 0 no effect, 100 complete control, read-out: Plant response rating, Soybean) was 0%, the plant injury at 16 g/ha (soybean (Glycine max); Glycine max, pre-emergence, Preemergence, scale 0 to 100 (0 no effect, 100 complete control), read-out: Plant response rating, Soybean) was 0% and the plant injury at 31 g/ha (soybean (Glycine max); Glycine max, pre-emergence, Preemergence, 31 g ai/ha, 0 to 100 scale, 0 no effect, 100 complete control, read-out: Plant response rating, Soybean) was 0%. The plant injury at 62 g/ha (soybean (Glycine max); Glycine max, pre-emergence, Preemergence, scale 0 to 100, read-out: Plant response rating, Soybean) was 0%, the “Soybean plant response rating” value (soybean (Glycine max); Preemergence, scale 0 to 100) was 0 and the “Surinam Grass plant response rating” value ([3]; postemergence, 0-100 scale) was 85. For the same compound, the “Surinam Grass plant response rating” value ([3]; Preemergence, scale 0 to 100) was 75, the pest or weed control at 16 g/ha ([3]; Urochloa decumbens, post-emergence, Postemergence, scale 0 to 100, read-out: Plant response rating, Surinam Grass) was 85% and the pest or weed control at 62 g/ha ([3]; Urochloa decumbens, post-emergence, Postemergence, scale 0 to 100, 0 no effect, 100 complete control, read-out: Plant response rating, Surinam Grass) was 100%. The pest or weed control at 16 g/ha ([3]; Urochloa decumbens, pre-emergence, Preemergence, scale 0 to 100 (0 no effect, 100 complete control), read-out: Plant response rating, Surinam Grass) was 85%, the pest or weed control at 31 g/ha ([3]; Urochloa decumbens, pre-emergence, Preemergence, 31 g ai/ha, 0 to 100 scale, 0 no effect, 100 complete control, read-out: Plant response rating, Surinam Grass) was 100% and the pest or weed control at 62 g/ha ([3]; Urochloa decumbens, pre-emergence, Preemergence, scale 0 to 100, read-out: Plant response rating, Surinam Grass) was 100%. The “Wheat plant response rating” value ([4]; postemergence, 0-100 scale) was 0, the “Wheat plant response rating” value ([4]; Preemergence, scale 0 to 100) was 0 and the plant injury at 16 g/ha ([4]; Triticum aestivum, post-emergence, Postemergence, scale 0 to 100, read-out: Plant response rating, Wheat) was 0%. For the same compound, the plant injury at 62 g/ha ([4]; Triticum aestivum, post-emergence, Postemergence, scale 0 to 100, 0 no effect, 100 complete control, read-out: Plant response rating, Wheat) was 5%, the plant injury at 16 g/ha ([4]; Triticum aestivum, pre-emergence, Preemergence, scale 0 to 100 (0 no effect, 100 complete control), read-out: Plant response rating, Wheat) was 0% and the plant injury at 31 g/ha ([4]; Triticum aestivum, pre-emergence, Preemergence, 31 g ai/ha, 0 to 100 scale, 0 no effect, 100 complete control, read-out: Plant response rating, Wheat) was 0%. The plant injury at 62 g/ha ([4]; Triticum aestivum, pre-emergence, Preemergence, scale 0 to 100, read-out: Plant response rating, Wheat) was 0%, the “Canarygrass plant response rating” value [5, 10] was 10 and the “Plant response rating, Canarygrass” value ([5]; 16 g ai/ha, scale 0 to 100) was 10. The “Plant response rating, Canarygrass” value [5, 11] was 60, the “Chickweed plant response rating” value [6, 10] was 0 and the “Plant response rating, Chickweed” value ([6]; 16 g ai/ha, scale 0 to 100) was 0. The “Plant response rating, Chickweed” value [6, 11] was 0, the “Plant response rating, Chickweed” value [6, 12] was 0 and the “Windgrass plant response rating” value [7, 10] was 50. The “Plant response rating, Windgrass” value ([7]; 16 g ai/ha, scale 0 to 100) was 80, the “Plant response rating, Windgrass” value [7, 12] was 95 and the “Barley plant response rating” value [8, 10] was 0. For the same compound, the “Plant response rating, Barley” value ([8]; 16 g ai/ha) was 0, the “Plant response rating, Barley” value ([8]; 31 g ai/ha) was 0 and the “Plant response rating, Barley” value ([8]; 62 g ai/ha) was 0.
